# According to patent publication US9914730B2, “Azaquinazoline inhibitors of Atypical protein Kinase C” (Ignyta, Inc., priority 2012, dated 2018):
# pIC50: −log10 of the molar value.
# Biological target: T1, full-length human PKCι (Homo sapiens, UniProt P41743)
# T1 construct: Recombinant, full-length human PKCι expressed in Sf21 insect cells is also commercially available; purchased; host or cells: Sf21 insect cells
# T1 sequence (P41743 1-596): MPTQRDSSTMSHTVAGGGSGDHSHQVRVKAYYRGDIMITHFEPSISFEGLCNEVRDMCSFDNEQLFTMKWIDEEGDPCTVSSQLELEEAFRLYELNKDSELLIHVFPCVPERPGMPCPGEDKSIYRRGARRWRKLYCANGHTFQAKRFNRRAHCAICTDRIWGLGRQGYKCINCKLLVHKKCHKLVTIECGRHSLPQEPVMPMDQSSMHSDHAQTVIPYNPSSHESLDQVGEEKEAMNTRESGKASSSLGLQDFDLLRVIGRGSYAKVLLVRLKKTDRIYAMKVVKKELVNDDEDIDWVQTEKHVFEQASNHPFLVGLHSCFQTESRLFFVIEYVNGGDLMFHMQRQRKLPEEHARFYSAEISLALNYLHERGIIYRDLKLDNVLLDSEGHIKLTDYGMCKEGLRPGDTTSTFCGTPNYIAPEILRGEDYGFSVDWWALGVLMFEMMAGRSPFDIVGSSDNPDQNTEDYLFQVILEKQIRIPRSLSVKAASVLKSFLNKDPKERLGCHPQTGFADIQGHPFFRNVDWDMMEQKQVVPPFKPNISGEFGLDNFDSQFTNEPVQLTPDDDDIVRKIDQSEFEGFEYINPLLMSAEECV
# Assay: PKCι IC50 IMAP assay, full-length PKCι at 150 μM ATP
# Type: biochemical
# Settings: read-out: IC50 in IMAP assay against full length PKCi at 150 μM ATP
# Method in brief: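 Recombinant full-length human PKCι (Sf21-expressed, typically 15 pM) phosphorylated 100 nM 5FAM-labelled PKCε pseudosubstrate-derived peptide with 150 μM ATP (5× KM^APP) in 18 mM tris-HCl pH7.5, 9 mM MgCl2, EGTA, DTT, 4% DMSO. After 60 min at room temperature, IMAP binding reagent was added for 2 h and fluorescence polarisation read.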
row,SMILES,pIC50
1,"CS(=O)(=O)C[C@H]1CN(c2nc(-c3ccnc(Nc4c(F)cccc4F)c3)nc3cncc(C4CC4)c23)CCN1 [Example 772, {4-[5-Cyclopropyl-4-((R)-3-methanesulfonyl-methyl-piperazin-1-yl)-pyrido[3,4-d]pyrimidin-2-yl]-pyridin-2-yl}-(2,6-difluoro-phenyl)-amine]",6.00 to 7.00
2,"CS(=O)(=O)C[C@H]1CN(c2nc(-c3ccnc(NC(=O)C4CC4)c3)nc3cncc(C4CC4)c23)CCN1 [Example 773, Cyclopropanecar-boxylic acid {4-[5-cyclopropyl-4-((R)-3-methanesulfonyl-methyl-piperazin-1-yl)-pyrido[3,4-d]pyrimidin-2-yl]-pyridin-2-yl}-amide]",6.00 to 7.00
3,"Fc1cc(F)c(F)c(Nc2cc(-c3nc(N4CCNCC4)c4c(C5CC5)cncc4n3)ccn2)n1 [Example 774, [4-(5-Cyclopropyl-4-piperazin-1-yl-pyrido[3,4-d]pyrimidin-2-yl)-pyridin-2-yl]-(3,4,6-trifluoro-pyridin-2-yl)-amine]",> 7.00
4,"CNCCNc1nc(-c2ccnc(Nc3c(F)cccc3F)c2)nc2cncc(C3CC3)c12 [Example 775, N-{5-Cyclopropyl-2-[2-(2,6-difluoro-phenylamino)-pyridin-4-yl]-pyrido[3,4-d]pyrimidin-4-yl}-N′-methyl-ethane-1,2-diamine]",> 7.00
5,"CN(C)CCNc1nc(-c2ccnc(Nc3c(F)cccc3F)c2)nc2cncc(C3CC3)c12 [Example 776, N-{5-Cyclopropyl-2-[2-(2,6-difluoro-phenylamino)-pyridin-4-yl]-pyrido[3,4-d]pyrimidin-4-yl}-N′,N′-dimethyl-ethane-1,2-diamine]",6.00 to 7.00
6,"CN1CCN(c2cccc(Nc3cc(-c4nc(N5CC(O)C5)c5c(C6CC6)cncc5n4)ccn3)c2)CC1 [Example 777, 1-(5-Cyclopropyl-2-{2-[3-(4-methyl-piperazin-1-yl)-phenylamino]-pyridin-4-yl}-pyrido[3,4-d]pyrimidin-4-yl)-azetidin-3-ol]",6.00 to 7.00
7,"OC1CN(c2nc(-c3ccnc(Nc4cccc(N5CCNCC5)c4)c3)nc3cncc(C4CC4)c23)C1 [Example 778, 1-{5-Cyclopropyl-2-[2-(3-piperazin-1-yl-phenylamino)-pyridin-4-yl]-pyrido[3,4-d]pyrimidin-4-yl}-azetidin-3-ol]",> 7.00
8,"CC(C)n1ccc(Nc2cc(-c3nc(N4CCNCC4)c4c(C5CC5)cncc4n3)ccn2)n1 [Example 779, [4-(5-Cyclopropyl-4-piperazin-1-yl-pyrido[3,4-d]pyrimidin-2-yl)-pyridin-2-yl]-(1-isopropyl-1H-pyrazol-3-yl)-amine]",> 7.00
9,"CCn1nc(Nc2cc(-c3nc(N4CCNCC4)c4c(C5CC5)cncc4n3)ccn2)cc1C [Example 780, [4-(5-Cyclopropyl-4-piperazin-1-yl-pyrido[3,4-d]pyrimidin-2-yl)-pyridin-2-yl]-(1-ethyl-5-methyl-1H-pyrazol-3-yl)-amine]",> 7.00
10,"CN1CCN(c2cccc(Nc3cc(-c4nc(N5CCC[C@@H](O)C5)c5c(C6CC6)cncc5n4)ccn3)n2)CC1 [Example 781, (R)-1-(5-Cyclopropyl-2-{2-[6-(4-methyl-piperazin-1-yl)-pyridin-2-ylamino]-pyridin-4-yl}-pyrido[3,4-d]pyrimidin-4-yl)-piperidin-3-ol]",6.00 to 7.00
11,"Fc1cnc(Nc2cc(-c3nc(N4CCNCC4)c4c(C5CCC5)cncc4n3)ccn2)c(F)c1 [Example 783, [4-(5-Cyclobutyl-4-piperazin-1-yl-pyrido[3,4-d]pyrimidin-2-yl)-pyridin-2-yl]-(3,5-difluoro-pyridin-2-yl)-amine]",> 7.00
12,"Fc1cccnc1Nc1cc(-c2nc(N3CCNCC3)c3c(C4CCC4)cncc3n2)ccn1 [Example 784, [4-(5-Cyclobutyl-4-piperazin-1-yl-pyrido[3,4-d]pyrimidin-2-yl)-pyridin-2-yl]-(3-fluoro-pyridin-2-yl)-amine]",> 7.00
13,"Fc1ccnc(Nc2cc(-c3nc(N4CCNCC4)c4c(C5CCC5)cncc4n3)ccn2)c1 [Example 785, [4-(5-Cyclobutyl-4-piperazin-1-yl-pyrido[3,4-d]pyrimidin-2-yl)-pyridin-2-yl]-(4-fluoro-pyridin-2-yl)-amine]",> 7.00
14,"Fc1cc(F)c(F)c(Nc2cc(-c3nc(N4CCNCC4)c4c(C5CCC5)cncc4n3)ccn2)n1 [Example 786, [4-(5-Cyclobutyl-4-piperazin-1-yl-pyrido[3,4-d]pyrimidin-2-yl)-pyridin-2-yl]-(3,4,6-trifluoro-pyridin-2-yl)-amine]",> 7.00
15,"CC1CN(c2nc(-c3ccnc(Nc4c(F)cccc4F)c3)nc3cncc(C4CC4)c23)CC(C)N1 (centres unmarked) [Example 787, {4-[5-Cyclopropyl-4-(3,5-dimethyl-piperazin-1-yl)-pyrido[3,4-d]pyrimidin-2-yl]-pyridin-2-yl}-(2,6-difluoro-phenyl)-amine]",> 7.00
16,"N#C[C@H]1CN(c2nc(-c3ccnc(Nc4c(F)cccc4F)c3)nc3cncc(C4CC4)c23)CCN1 [Example 788, (R)-4-{5-Cyclopropyl-2-[2-(2,6-difluoro-phenylamino)-pyridin-4-yl]-pyrido[3,4-d]pyrimidin-4-yl}-piperazine-2-carbonitrile]",6.00 to 7.00
17,"Fc1cccc(F)c1Nc1cc(-c2nc(C3=CCNCC3)c3c(C4CC4)cncc3n2)ccn1 [Example 789, {4-[5-Cyclopropyl-4-(1,2,3,6-tetrahydro-pyridin-4-yl)-pyrido[3,4-d]pyrimidin-2-yl]-pyridin-2-yl}-(2,6-difluoro-phenyl)-amine]",6.00 to 7.00
18,"Fc1cccc(F)c1Nc1cc(-c2nc(NC3CCNCC3)c3c(C4CC4)cncc3n2)ccn1 [Example 790, {5-Cyclopropyl-2-[2-(2,6-difluoro-phenylamino)-pyridin-4-yl]-pyrido[3,4-d]pyrimidin-4-yl}-piperidin-4-yl-amine]",> 7.00
19,"Fc1cccc(F)c1Nc1cc(-c2nc(SC3CCNCC3)c3c(C4CC4)cncc3n2)ccn1 [Example 791, {4-[5-Cyclopropyl-4-(piperidin-4-ylsulfanyl)-pyrido[3,4-d]pyrimidin-2-yl]-pyridin-2-yl}-(2,6-difluoro-phenyl)-amine]",> 7.00
20,"CN1CCN(c2cccc(Nc3cc(-c4nc(N5C[C@H](O)[C@@H](O)C5)c5c(C6CC6)cncc5n4)ccn3)c2)CC1 [Example 793, (3S,4S)-1-(5-Cyclopropyl-2-{2-[3-(4-methyl-piperazin-1-yl)-phenylamino]-pyridin-4-yl}-pyrido[3,4-d]pyrimidin-4-yl)-pyrrolidine-3,4-diol]",6.00 to 7.00
21,"c1cc(-c2nc(N3CCNCC3)c3c(C4CC4)cncc3n2)cc(Nc2cnn(C3CC3)c2)n1 [Example 794, [4-(5-Cyclopropyl-4-piperazin-1-yl-pyrido[3,4-d]pyrimidin-2-yl)-pyridin-2-yl]-(1-cyclopropyl-1H-pyrazol-4-yl)-amine]",> 7.00
22,"c1cc(-c2nc(N3CCNCC3)c3c(C4CC4)cncc3n2)cc(Nc2cnn(C3CCOCC3)c2)n1 [Example 795, [4-(5-Cyclopropyl-4-piperazin-1-yl-pyrido[3,4-d]pyrimidin-2-yl)-pyridin-2-yl]-[1-(tetrahydro-pyran-4-yl)-1H-pyrazol-4-yl]-amine]",> 7.00
23,"c1cc(-c2nc(N3CCNCC3)c3c(C4CC4)cncc3n2)cc(Nc2cnn(C3CCCC3)c2)n1 [Example 796, (1-Cyclopentyl-1H-pyrazol-4-yl)-[4-(5-cyclopropyl-4-piperazin-1-yl-pyrido[3,4-d]pyrimidin-2-yl)-pyridin-2-yl]-amine]",> 7.00
